How the values were obtained:
[1] = system: U87MG, PC-3, CAMA1, C8161, HT-29, A549 cancer cell lines; experiment: 64CuCl2 tumor cell uptake (internalization) at different radioconcentrations; format: cell-based; conditions: 4 h after treatment; same dose of radioactivity; higher radioconcentrations (2,775 and 1,850 MBq/mL) compared to the lowest (925 MBq/mL); all the cell lines
Protocol: (§1) The capability resulted improved at a radioconcentration higher than 925 MBq/mL compared to lower concentrations. This is the first time that the impact of the drug radioconcentration has been correlated to the cell-killing effect for the translation to humans. The inventor performed internalization and survival studies on different cancer cell lines (U87MG [glioblastoma], PC-3[prostate cancer], CAMA1 [breast cancer], C8161[melanoma], HT-29[colorectal cancer]), A549 [lung cancer] applying the same amount (dose) of radioactivity (eg. 10 MBq), but at different radioconcentrations, e.g. 2,775 MBq/mL vs. 1,850 MBq/mL, vs. 925MBq/mL.
(§2) This effect of the radioconcentration could have a great impact on patients for the optimization of treatment. In fact, in consideration of the mechanism through which ^64Cu reaches the tumor cell, the different radioconcentrations, that is to say “the number of nuclear disintegrations per unit time in a given amount of the preparation”, can influence the biodistribution in vivo. […]
FIG. 1—Impact of different radioconcentrations on tumor cell uptake ^64CuCl2 cell uptake in different tumor cell lines U87MG, PC-3, CAMA1, C8161, HT-29. Cell uptake was evaluated treating cells at the same dosage (15 MBq/dish 100 mm), but at three different radioconcentrations C1=925 MBq/mL, C2=1,850 MBq/mL, C3=2,775 MBq/mL. Values are expressed as mean ±SEM.

U87MG = experiment: Cell survival (cell-killing effect) at different radioconcentrations; format: cell-based
Protocol: as §1, §2
Survival curve of U87MG treated with the same dosage range but at three different concentrations C1=925 MBq/mL, C2=1,850 MBq/mL, C3=2,775 MBq/mL. Value are expressed as mean ±SEM. […]

[2] = Biodistribution, pharmacokinetics, dosimetry and safety in glioblastoma patients; format: in vivo, human
Protocol: Six glioblastoma patients were evaluated for safety profile and the study of biodistribution was conducted including evaluation of PET/CT scans after first daily dose administration of radiopharmaceutical composition having a radioconcentration of 2,775 MBq/mL (day 0), at different time points 1 h, 4 h, 24 h, 48 h after injection and pharmacokinetic (PK) radioactivity on blood samples at different time points of administration.

[3] = Effective dose of the diagnostic 64CuCl2 administration; format: in vivo, human; conditions: diagnostic dose 370-925 MBq
Description: Patients with tumor received ^64CuCl2 at a dose between 370-925 MBq to ensure appropriate image quality. The mean effective dose for ^64CuCl2 calculated is 20 mSv per exam, which is aligned with the ones from the conventional PET imaging.

glioblastoma = experiment: Response to 64CuCl2 treatment in glioblastoma patients (MRI, RANO criteria); format: in vivo, human
Protocol: A glioblastoma patient of 70 kg that belongs to the class of recurrent glioblastoma. The patient underwent surgery, radiotherapy and chemotherapy and after that experienced recurrence. Standard treatment are not effective in this setting therefore the patient received a diagnostic dose of ^64CuCl2 equal to 925 MBq. After 1 h from administration a PET/CT scan is performed. The patient resulted positive for copper lesion at the diagnostic dose and started treatment
The treatment with ^64CuCl2 (2,775 MBq/mL) for intravenous use by injection followed this scheme and the patient received once a week: • 1st dose=4,810 MBq, 2nd dose=4,810 MBq, 3rd dose=4,810 MBq, 4th dose=4,810 MBq, 5th dose=4,810 MBq, 6th dose=4,810 MBq, 7th dose=4,810 MBq
The patient (71 Kg) underwent surgery, radiotherapy and chemotherapy and after that experienced recurrence. Standard treatments are not effective in this setting therefore the patient received a diagnostic dose of ^64CuCl2 equal to 925 MBq. After 1 h from administration a PET/CT scan is performed. The patient resulted positive for copper lesion at the diagnostic dose and started treatment (^64CuCl2 277 MBq/mL for intravenous by infusion).
The treatment followed this scheme and the patient received once a week: • 1st dose=1,850 MBq, 2nd dose=2,460 MBq, 3rd dose=2,922 MBq, 4th dose=3,292 MBq, 5th dose=3,606 MBq, 6th dose=3,865 MBq, 7th dose=4,068 MBq.
The phase I clinical trial on glioblastoma is the first study evaluating preliminary efficacy of ^64CuCl2 2,775 MBq/mL as therapeutic agent. This determination was performed on 10 patients, at the end of the 7th therapy dose, at 90th day (after 3 months of the last treatment) and whenever possible at 180th day to obtain a wider evaluation of the disease status. Data cut-off was performed after 5 patients. The response to treatment, in term of anti-tumor activity of ^64CuCl2, was measured by MRI, assessed according to the RANO criteria (Response Assessment in Neuro-Oncology, see Wen PY et al.) and defined as complete response (disappearance of tumor) partial response (reduction) and stable disease (non-progression of GBM). Among these patients 4 resulted responders and 1 non-responder. […] Tumor volume reduction ≥50% was also shown in two cases after three months from the last treatment, and in one patient after 6 months from the last treatment.

prostate cancer = experiment: Response to 64CuCl2 treatment in prostate cancer patients (PET/CT); format: in vivo, human
Protocol: The patient at initial diagnosis had local tumor, and after surgery (radical prostatectomy) they underwent radiotherapy and chemotherapy. However, they experienced local recurrence plus a bone metastatic lesion. After receiving all standard treatments, the patient received a diagnostic dose of ^64CuCl2 equal to 925 MBq. After 1 h from administration a PET/CT scan is performed. The patient resulted positive for copper lesion at the diagnostic dose and started treatment. […] The PET/CT acquired the same day of the 4th therapeutic administration and the PET/CT acquired before treatment beginning were analyzed by two independent observers (a third observer expressed another evaluation only in case of discrepancies).

B16F10 or A375M tumors = conditions: vs control group, cited from earlier work
U-87 GM cells = conditions: nude mice implanted with U-87 GM cells; cited from earlier work
[4] = system: Human GBM cell lines (LI) PARI, ADF and T98G; conditions: time and dose dependent; cited from earlier work
[5] = system: PCa spheroids (derived from 22RV1, DU145, and LNCaP cells); conditions: in vitro; cited from earlier work
[6] = system: 5 human neoplastic cell lines (ovarian cancer, head and neck, neuroendocrine lung carcinoma, colorectal cancer, glioblastoma); conditions: microPET after administration of 64CuCl2; cited from earlier work
[7] = six glioblastoma patients, 2,775 MBq/mL
[8] = phase I glioblastoma, 2,775 MBq/mL, data cut-off after 5 patients, 7 treatments

Q: Which results are given for [Cl][Cu][Cl] [^64CuCl2, Copper Chloride]?
A: cell uptake [1]: significantly greater; cell-killing effect (U87MG; 24 h after treatment, 2,775 MBq/mL, U87MG survival curve): increased cell-killing effect; improved cell killing-effect compared to C1 (U87MG; C3=2,775 MBq/mL vs C1=925 MBq/mL at D4=1.7 MBq and D5=3.4 MBq): about 30%; treatment related toxicities associated to liver/kidney and red marrow distribution ([2]; glioblastoma patients): No treatment related toxicities were registered; biodistribution (organ uptake) [2, 7]: significant uptake in the liver (as expected) followed by kidney and L2-L4 regions; effective dose, median [2, 7]: 26.08 mSv; 64Cu uptake over time (pharmacokinetic profile) ([2]; six glioblastoma patients, 2,775 MBq/mL, PET/CT 1 h, 4 h, 24 h, 48 h after injection): increases up to 4 h post-injection and decreased thereafter; mean effective dose per exam [3]: 20 mSv; patients with tumor volume reduction ≥50% (glioblastoma; 6 months from the last treatment): one; patients with reduction of tumor volume ≥50% compared to baseline MRI (glioblastoma; day 42 evaluation): one; patients with stable disease (glioblastoma; day 42 evaluation, responder patients): 3 patients; patients with stable disease (glioblastoma; day 90): 2 patients; number of non-responders (glioblastoma; [8]): 1; number of responders (glioblastoma; [8]): 4; response to the treatment (glioblastoma; recurrent glioblastoma patient (71 Kg), 277 MBq/mL i.v. infusion, 7 increasing doses 1,850-4,068 MBq once a week): responder; cases with tumor volume reduction ≥50% (glioblastoma; three months from the last treatment): two; patients with stable disease (glioblastoma; up to six months after treatment): one; volume of lesions (PET/CT) (prostate cancer; five prostate cancer patients, after 4 administrations, 2,775 MBq/mL solution for injection): a reduction or a non-progression; tumor lesions on the bone, PET/CT before and after treatment (prostate cancer; metastatic prostate cancer patient, 2,775 MBq/mL injection, 7 doses of 4,810 MBq once a week): reduction of the tumor lesions on the bone; tumor growth (B16F10 or A375M tumors; B16F10 and A375M models, one dose about 74 MBq): much slower than that of the control group; survival (B16F10 or A375M tumors; mice bearing B16F10 or A375M tumors): significantly improved survival; tumor volume, in some cases (U-87 GM cells): complete regression; modulation of cell viability [4]: dose dependent; growth of spheroids [5]: reduce their growth; uptake of 64Cu2+ by neoplastic tissues [6]: significant uptake
